What was measured:
Type in all cases: biochemical
Lck = biological target: T1, Lck (Homo sapiens, UniProt P06239); experiment: Kinase inhibition assay (33P transfer), Lck; settings: Table 3; read-out: Lck-1
T1 construct: Kinases are expressed as either kinase domains or full length constructs; made in house
Procedure, shortened: (§1)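 GST/His-tagged kinase (domain or full length; E. coli or baculovirus) + [33P]ATP on plates coated with poly(Glu,Tyr) 4:1 or poly(Arg,Ser) 3:1; incubate, wash 0.5% H3PO4, add scintillant, count.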

Lyn = biological target: T2, Lyn (Homo sapiens, UniProt P07948); experiment: Kinase inhibition assay (33P transfer), Lyn; settings: Table 6, Lyn-1 kinase inhibition class
T2 construct: Kinases are expressed as either kinase domains or full length constructs; made in house
Procedure, shortened: (§2)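 Activity read as 33P incorporation from ATP into poly(Glu,Tyr) 4:1 or poly(Arg,Ser) 3:1 substrate bound to microtiter plates, measured by scintillation after acid washing. Enzymes were affinity-purified GST or polyHis fusions (kinase domain or full length) from E. coli or baculovirus; IC50 = 50% reduction in labelled phosphate.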

Src = biological target: T3, Src (Homo sapiens, UniProt P12931); experiment: Kinase inhibition assay (33P transfer), Src; settings: Table 6, Src-1 kinase inhibition class
T3 construct: Kinases are expressed as either kinase domains or full length constructs; made in house
Procedure, shortened: as §2

Fyn = biological target: T4, Fyn (Homo sapiens, UniProt P06241); experiment: Kinase inhibition assay (33P transfer), Fyn; settings: read-out: Fyn-1
T4 construct: Kinases are expressed as either kinase domains or full length constructs; made in house
Procedure, shortened: as §2

Zap-70 = biological target: T5, Zap-70 (Homo sapiens, UniProt P43403); experiment: Kinase inhibition assay (33P transfer), Zap-70; settings: Table 3; read-out: Zap-1
T5 construct: Kinases are expressed as either kinase domains or full length constructs; made in house
T5 sequence (P43403 1-619): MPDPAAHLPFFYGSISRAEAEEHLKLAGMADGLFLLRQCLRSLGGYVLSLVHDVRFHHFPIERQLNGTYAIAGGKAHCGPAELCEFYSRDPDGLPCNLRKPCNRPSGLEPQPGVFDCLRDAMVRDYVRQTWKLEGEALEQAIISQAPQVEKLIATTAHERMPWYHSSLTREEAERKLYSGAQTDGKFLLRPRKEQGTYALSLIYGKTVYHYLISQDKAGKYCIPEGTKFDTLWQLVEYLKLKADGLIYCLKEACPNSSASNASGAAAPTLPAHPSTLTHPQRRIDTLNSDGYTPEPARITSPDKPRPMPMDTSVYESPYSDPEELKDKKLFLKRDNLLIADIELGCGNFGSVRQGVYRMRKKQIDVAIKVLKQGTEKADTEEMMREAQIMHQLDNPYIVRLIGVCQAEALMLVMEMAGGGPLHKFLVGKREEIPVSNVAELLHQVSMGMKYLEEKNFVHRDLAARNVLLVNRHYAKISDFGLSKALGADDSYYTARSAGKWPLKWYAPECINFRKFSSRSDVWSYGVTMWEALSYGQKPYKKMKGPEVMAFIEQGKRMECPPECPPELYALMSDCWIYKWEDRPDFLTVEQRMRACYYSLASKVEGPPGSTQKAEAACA
Procedure, shortened: as §1

Itk = biological target: T6, Itk (Homo sapiens, UniProt Q08881); experiment: Kinase inhibition assay (33P transfer), Itk; settings: Table 3; read-out: Itk-1
T6 construct: Kinases are expressed as either kinase domains or full length constructs; made in house
T6 sequence (Q08881 1-620): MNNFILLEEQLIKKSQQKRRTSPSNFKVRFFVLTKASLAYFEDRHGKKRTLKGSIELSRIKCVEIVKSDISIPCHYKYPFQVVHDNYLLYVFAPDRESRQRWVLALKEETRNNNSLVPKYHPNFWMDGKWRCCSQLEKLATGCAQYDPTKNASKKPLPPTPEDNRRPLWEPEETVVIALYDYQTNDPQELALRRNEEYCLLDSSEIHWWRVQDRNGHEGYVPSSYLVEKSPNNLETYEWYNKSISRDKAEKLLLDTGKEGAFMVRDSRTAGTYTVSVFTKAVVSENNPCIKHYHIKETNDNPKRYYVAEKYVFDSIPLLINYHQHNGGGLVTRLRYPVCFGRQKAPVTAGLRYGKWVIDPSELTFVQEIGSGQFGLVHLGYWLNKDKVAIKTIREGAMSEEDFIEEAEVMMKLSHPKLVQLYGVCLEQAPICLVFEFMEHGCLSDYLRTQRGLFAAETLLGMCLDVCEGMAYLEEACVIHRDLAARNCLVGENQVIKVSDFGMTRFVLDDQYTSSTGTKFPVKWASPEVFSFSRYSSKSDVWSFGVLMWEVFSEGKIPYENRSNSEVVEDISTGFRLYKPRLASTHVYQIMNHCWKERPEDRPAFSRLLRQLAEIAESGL
Procedure, shortened: as §2

Kdr = biological target: T7, Kdr (Homo sapiens, UniProt P35968); experiment: Kinase inhibition assay (33P transfer), Kdr; settings: Table 3; read-out: KDR-1
T7 construct: Kinases are expressed as either kinase domains or full length constructs; made in house
Procedure, shortened: as §1

c-Met = biological target: T8, c-Met (Homo sapiens, UniProt P08581); experiment: Kinase inhibition assay (33P transfer), c-Met; settings: Table 2, kinase inhibition class; read-out: Met-1
T8 construct: Kinases are expressed as either kinase domains or full length constructs; made in house
Procedure, shortened: as §2

IGFR-1 = biological target: T9, IGFR-1 (Homo sapiens, UniProt P08069); experiment: Kinase inhibition assay (33P transfer), IGFR-1; settings: Table 2, kinase inhibition class
T9 construct: Kinases are expressed as either kinase domains or full length constructs; made in house

PDGFRB = biological target: T10, PDGFRB (Homo sapiens, UniProt P09619); experiment: Kinase inhibition assay (33P transfer), PDGFRB; settings: read-out: PDGFRB-1
T10 construct: Kinases are expressed as either kinase domains or full length constructs; made in house

ErbB4 = biological target: T11, ErbB4 (Homo sapiens, UniProt Q15303); experiment: Kinase inhibition assay (33P transfer), ErbB4; settings: read-out: ErbB4-1
T11 construct: Kinases are expressed as either kinase domains or full length constructs; made in house

FGFR1 = biological target: T12, FGFR1 (Homo sapiens, UniProt P11362); experiment: Kinase inhibition assay (33P transfer), FGFR1; settings: read-out: FGFR1-1
T12 construct: Kinases are expressed as either kinase domains or full length constructs; made in house

T10 sequence (P09619 33-1106, species assumed): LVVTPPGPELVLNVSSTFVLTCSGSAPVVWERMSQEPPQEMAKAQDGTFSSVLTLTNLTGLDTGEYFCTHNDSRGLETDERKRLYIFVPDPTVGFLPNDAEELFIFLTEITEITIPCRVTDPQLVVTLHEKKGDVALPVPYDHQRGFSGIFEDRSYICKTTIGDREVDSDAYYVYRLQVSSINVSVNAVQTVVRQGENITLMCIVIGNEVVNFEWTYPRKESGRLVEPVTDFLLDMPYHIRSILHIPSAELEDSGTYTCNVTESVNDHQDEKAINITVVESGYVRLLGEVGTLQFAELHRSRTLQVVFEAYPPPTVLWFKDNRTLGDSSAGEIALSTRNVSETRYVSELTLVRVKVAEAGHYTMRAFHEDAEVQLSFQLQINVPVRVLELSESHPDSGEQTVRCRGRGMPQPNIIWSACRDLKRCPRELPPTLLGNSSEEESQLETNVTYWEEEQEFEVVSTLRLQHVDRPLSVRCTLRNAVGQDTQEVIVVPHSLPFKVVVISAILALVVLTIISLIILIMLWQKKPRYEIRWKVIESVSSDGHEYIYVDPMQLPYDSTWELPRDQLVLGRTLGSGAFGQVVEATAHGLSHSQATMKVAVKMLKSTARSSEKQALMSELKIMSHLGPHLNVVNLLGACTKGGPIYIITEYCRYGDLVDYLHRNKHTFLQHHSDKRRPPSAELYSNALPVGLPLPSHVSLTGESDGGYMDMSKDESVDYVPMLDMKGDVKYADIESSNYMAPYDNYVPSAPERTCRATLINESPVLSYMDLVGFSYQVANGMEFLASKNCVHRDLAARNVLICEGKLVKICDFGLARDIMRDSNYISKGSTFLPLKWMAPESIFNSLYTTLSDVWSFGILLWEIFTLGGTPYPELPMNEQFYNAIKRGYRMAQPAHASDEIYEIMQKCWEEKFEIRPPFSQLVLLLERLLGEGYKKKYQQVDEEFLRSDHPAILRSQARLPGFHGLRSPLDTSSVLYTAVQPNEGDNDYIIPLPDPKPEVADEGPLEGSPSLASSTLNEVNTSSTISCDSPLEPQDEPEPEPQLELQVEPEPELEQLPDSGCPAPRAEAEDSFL
T2 sequence (P07948 whole entry, species assumed, the tested form may be a part): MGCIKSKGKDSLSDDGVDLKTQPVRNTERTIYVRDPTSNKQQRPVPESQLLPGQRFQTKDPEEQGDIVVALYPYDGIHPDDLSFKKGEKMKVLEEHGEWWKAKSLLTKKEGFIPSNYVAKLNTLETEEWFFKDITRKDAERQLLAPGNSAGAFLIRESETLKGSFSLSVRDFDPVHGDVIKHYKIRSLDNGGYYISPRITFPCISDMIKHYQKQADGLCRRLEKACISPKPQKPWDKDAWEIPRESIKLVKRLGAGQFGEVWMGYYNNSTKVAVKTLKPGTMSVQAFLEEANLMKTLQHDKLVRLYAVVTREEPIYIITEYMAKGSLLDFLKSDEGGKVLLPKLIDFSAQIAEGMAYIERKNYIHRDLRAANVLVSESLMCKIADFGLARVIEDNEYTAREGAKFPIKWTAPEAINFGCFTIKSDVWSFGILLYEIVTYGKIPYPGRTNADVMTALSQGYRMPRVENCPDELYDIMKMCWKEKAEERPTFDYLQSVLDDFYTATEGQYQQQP
T4 sequence (P06241 whole entry, species assumed, the tested form may be a part): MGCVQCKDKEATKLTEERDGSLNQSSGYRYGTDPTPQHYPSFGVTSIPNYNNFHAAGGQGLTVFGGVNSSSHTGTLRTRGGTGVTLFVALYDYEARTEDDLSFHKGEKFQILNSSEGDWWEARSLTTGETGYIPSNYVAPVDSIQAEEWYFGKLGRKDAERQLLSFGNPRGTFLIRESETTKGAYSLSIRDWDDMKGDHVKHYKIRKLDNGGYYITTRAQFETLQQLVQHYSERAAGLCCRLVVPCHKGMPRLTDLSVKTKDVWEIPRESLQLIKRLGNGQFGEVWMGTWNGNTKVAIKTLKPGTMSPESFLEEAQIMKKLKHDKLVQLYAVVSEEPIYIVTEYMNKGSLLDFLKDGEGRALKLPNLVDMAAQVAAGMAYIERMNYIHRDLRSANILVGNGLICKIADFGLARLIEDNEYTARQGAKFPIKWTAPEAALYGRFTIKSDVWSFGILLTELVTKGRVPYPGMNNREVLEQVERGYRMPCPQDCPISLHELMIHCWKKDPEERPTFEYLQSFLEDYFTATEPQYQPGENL
T1 sequence (P06239 whole entry, species assumed, the tested form may be a part): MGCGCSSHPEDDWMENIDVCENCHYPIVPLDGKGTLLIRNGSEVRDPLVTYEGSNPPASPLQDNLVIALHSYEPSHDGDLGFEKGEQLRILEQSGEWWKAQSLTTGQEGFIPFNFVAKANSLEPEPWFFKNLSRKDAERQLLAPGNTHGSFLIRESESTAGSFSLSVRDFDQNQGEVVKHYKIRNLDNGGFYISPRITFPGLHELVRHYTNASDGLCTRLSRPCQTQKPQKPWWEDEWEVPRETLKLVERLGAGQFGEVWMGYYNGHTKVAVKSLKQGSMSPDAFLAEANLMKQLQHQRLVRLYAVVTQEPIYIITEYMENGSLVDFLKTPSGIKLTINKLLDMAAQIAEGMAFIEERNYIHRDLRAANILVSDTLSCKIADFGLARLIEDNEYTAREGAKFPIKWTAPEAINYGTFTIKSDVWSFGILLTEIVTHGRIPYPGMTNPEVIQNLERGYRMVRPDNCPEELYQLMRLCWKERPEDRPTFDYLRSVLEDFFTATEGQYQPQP
T9 sequence (P08069 31-1367): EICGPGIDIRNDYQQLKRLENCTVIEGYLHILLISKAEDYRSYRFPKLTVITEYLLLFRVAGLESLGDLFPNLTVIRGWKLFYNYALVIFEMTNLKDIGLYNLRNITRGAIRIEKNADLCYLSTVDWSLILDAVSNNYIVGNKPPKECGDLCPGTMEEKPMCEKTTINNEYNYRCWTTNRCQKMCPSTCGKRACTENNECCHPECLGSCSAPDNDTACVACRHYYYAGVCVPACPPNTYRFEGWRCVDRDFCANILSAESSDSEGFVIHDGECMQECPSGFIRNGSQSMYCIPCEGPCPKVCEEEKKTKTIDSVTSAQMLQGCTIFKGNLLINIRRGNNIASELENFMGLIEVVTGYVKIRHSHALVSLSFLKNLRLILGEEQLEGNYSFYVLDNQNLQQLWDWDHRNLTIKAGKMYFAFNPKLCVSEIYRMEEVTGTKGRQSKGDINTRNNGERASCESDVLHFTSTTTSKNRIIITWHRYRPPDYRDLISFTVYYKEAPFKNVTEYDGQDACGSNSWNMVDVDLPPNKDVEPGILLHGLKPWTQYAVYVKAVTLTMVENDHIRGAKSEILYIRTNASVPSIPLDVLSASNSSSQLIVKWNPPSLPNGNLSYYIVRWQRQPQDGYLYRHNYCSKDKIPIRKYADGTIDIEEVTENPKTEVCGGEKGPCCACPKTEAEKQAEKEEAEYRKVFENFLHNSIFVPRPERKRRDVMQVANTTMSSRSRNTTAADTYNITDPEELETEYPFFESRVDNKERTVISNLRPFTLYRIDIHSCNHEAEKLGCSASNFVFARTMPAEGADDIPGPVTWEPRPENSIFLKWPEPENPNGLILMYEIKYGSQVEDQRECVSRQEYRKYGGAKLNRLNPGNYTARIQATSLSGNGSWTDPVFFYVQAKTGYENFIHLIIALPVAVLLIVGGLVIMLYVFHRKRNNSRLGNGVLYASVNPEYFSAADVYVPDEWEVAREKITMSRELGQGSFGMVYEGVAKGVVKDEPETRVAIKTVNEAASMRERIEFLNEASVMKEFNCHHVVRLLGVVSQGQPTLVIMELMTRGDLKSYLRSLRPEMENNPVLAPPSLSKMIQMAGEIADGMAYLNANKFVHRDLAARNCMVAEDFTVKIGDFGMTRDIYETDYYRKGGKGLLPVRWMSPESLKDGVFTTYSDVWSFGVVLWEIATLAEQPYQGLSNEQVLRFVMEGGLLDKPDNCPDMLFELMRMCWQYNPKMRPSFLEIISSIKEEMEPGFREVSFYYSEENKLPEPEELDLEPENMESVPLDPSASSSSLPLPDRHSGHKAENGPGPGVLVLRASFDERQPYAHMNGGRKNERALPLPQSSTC
T3 sequence (P12931 whole entry, species assumed, the tested form may be a part): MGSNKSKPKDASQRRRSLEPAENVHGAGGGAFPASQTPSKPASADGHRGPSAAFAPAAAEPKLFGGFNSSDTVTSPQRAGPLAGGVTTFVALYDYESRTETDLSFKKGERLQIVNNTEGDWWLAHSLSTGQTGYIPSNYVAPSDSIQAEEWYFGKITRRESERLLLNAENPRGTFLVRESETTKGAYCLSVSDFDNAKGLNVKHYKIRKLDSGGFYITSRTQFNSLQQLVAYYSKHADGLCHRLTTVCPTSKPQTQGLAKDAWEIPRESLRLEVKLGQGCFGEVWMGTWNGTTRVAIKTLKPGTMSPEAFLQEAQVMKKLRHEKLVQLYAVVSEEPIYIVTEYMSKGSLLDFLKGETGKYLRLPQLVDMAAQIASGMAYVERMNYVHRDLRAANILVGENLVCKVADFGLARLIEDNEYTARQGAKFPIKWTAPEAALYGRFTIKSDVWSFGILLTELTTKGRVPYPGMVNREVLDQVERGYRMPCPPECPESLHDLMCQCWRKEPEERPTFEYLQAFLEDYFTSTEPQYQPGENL

SMILES | IC50 (Lck) | IC50 (Lyn) | IC50 (Src) | IC50 (Fyn) | IC50 (Zap-70) | IC50 (Itk) | IC50 (Kdr) | IC50 (c-Met) | IC50 (IGFR-1) | IC50 (PDGFRB) | IC50 (ErbB4) | IC50 (FGFR1)
COc1cc(Nc2ncnc(-n3c(NCc4ccccc4)nc4ccccc43)n2)cc(OC)c1OC [Compound 371] | 0.827 to 4.96 µM | < 0.827 µM | 0.827 to 4.96 µM | < 0.827 µM | > 9.31 µM | > 9.31 µM | < 0.827 µM | > 9.31 µM | > 9.31 µM | < 0.827 µM | > 9.31 µM | < 0.827 µM
COc1cc(Nc2ncnc(Nc3ccc(F)c(Cl)c3)n2)cc(OC)c1OC [Compound 61] | < 0.986 µM | < 0.986 µM | < 0.986 µM | < 0.986 µM | > 11.1 µM | > 11.1 µM | < 0.986 µM | > 11.1 µM | < 0.986 µM | < 0.986 µM | > 11.1 µM | > 11.1 µM
COc1cc(Nc2ncnc(Nc3cc(-c4ccccc4)n[nH]3)n2)cc(OC)c1OC [Compound 102] | < 0.954 µM | < 0.954 µM | < 0.954 µM | < 0.954 µM | > 10.7 µM | 0.954 to 5.72 µM | < 0.954 µM | < 0.954 µM | < 0.954 µM | 5.72 to 8.34 µM | < 0.954 µM | 0.954 to 5.72 µM
COc1cc(Nc2ncnc(Nc3cc(Cl)c(O)c(Cl)c3)n2)cc(OC)c1OC [Compound 68] | < 0.913 µM | < 0.913 µM | < 0.913 µM | > 10.3 µM | > 10.3 µM | > 10.3 µM | < 0.913 µM | 7.99 to 10.3 µM | < 0.913 µM | 0.913 to 5.48 µM | > 10.3 µM | > 10.3 µM
COc1cc(Nc2ncnc(Nc3cccc4ccccc34)n2)cc(OC)c1OC [Compound 98] | < 0.991 µM | 0.991 to 5.95 µM | > 11.2 µM | 0.991 to 5.95 µM | > 11.2 µM | > 11.2 µM | < 0.991 µM | > 11.2 µM | > 11.2 µM | > 11.2 µM | > 11.2 µM | 5.95 to 8.68 µM
O=C1OCc2ccc(Nc3ncnc(Nc4cc(-c5ccco5)n[nH]4)n3)cc21 [Compound 364] | 6.39 to 9.32 µM | 9.32 to 12 µM | > 12 µM | > 12 µM | > 12 µM | 6.39 to 9.32 µM | < 1.07 µM | 1.07 to 6.39 µM | 1.07 to 6.39 µM | 6.39 to 9.32 µM | > 12 µM | 1.07 to 6.39 µM
COc1cc(Nc2ncnc(Nc3cc(C)c(O)cc3C)n2)cc(OC)c1OC [Compound 94] | < 1.01 µM | < 1.01 µM | 1.01 to 6.04 µM | < 1.01 µM | > 11.3 µM | > 11.3 µM | < 1.01 µM | > 11.3 µM | 6.04 to 8.81 µM | 1.01 to 6.04 µM | 1.01 to 6.04 µM | > 11.3 µM
COc1cc(Nc2ncnc(-n3c(Nc4ccccc4C)nc4ccccc43)n2)cc(OC)c1OC [Compound 384] | < 0.827 µM | < 0.827 µM | > 9.31 µM | 0.827 to 4.96 µM | > 9.31 µM | > 9.31 µM | < 0.827 µM | 7.24 to 9.31 µM | > 9.31 µM | < 0.827 µM | > 9.31 µM | 0.827 to 4.96 µM
COc1cc(Nc2ncnc(-n3c(Nc4ccc(C(C)C)cc4)nc4ccccc43)n2)cc(OC)c1OC [Compound 388] | 0.782 to 4.69 µM | 0.782 to 4.69 µM | > 8.8 µM | > 8.8 µM | > 8.8 µM | > 8.8 µM | 0.782 to 4.69 µM | > 8.8 µM | > 8.8 µM | 0.782 to 4.69 µM | > 8.8 µM | 4.69 to 6.84 µM

— patent publication US7074789B2, “Kinase inhibitors” (Amgen Inc., priority 1999, dated 2006)
